# Legend:
# [1] = Particle size after milling (light scattering); assay type: physicochemical
# Experimental: 15% Compound 2 was milled with 4% Pluronic F-108 in the presence of zirconium silicate (1.1 mm dia) beads for 3 days under aseptic conditions. No additional salts or surfactants were added. The average particle size of the resulting nanoparticle suspension was 162 nm as determined by light scattering.
# (§1) Compound 2 was milled with zirconium silicate (1.1 mm dia) beads in the presence of Pluronic F-108 for 3 days. The final particle size was determined to be 235 nm. At this point, sterile PEG 400 was added to the suspension such that at completion, the formulation contained 15% (w/v) WIN 70146, 3% (w/v) Pluronic F-108, and 10% (w/v) PEG 400. This formulation was then autoclaved under standard conditions, i.e., 121° C. for 20 min., resulting in a final particle size of 248 nm.
# lymph = test: Lymphographic imaging by CT; assay type: in vivo, New Zealand White Rabbits; details: autoclaved Pluronic F-108/PEG 400 formulation; 2 injections (0.25 ml) per paw
# Experimental: (§2) This formulation was evaluated at CIPR for both blood pool and lymphographic imaging in New Zealand White Rabbits using the above-described protocol (3 ml/kg) for blood pool imaging and 2 injections (0.25 ml) per paw for lymphography. […] Scanning was carried out using a Toshiba 900S Imager CT scanner and image density was calculated from iodinated standards imaged simultaneously with the animals.
# [2] = Particle size after autoclaving at 121° C. for 20 min. (heat stability); assay type: physicochemical
# Experimental: (§3) Compound 2 was added to each of 3×1.5 oz brown glass bottles containing approximately 12 ml of zirconium silicate (1.1 mm dia.) beads in an amount sufficient to be 15% (w/v) of the final suspension. Bottle A contained 3% (w/v) Pluronic F-68. Bottle B contained 3% (w/v) Pluronic F108. Bottle C contained 3% (w/v) Tetronic T-908. The resulting suspensions were milled on a roller mill at approximately 150 rpm for a total of 9 days. Estimates of particle size determined at various intervals were as detailed below:
# 0.1% (w/v) DOSS was added to the F108 and T908 samples for autoclaving as cloud point modifiers.
# as §1
# spleen = test: CT imaging, spleen opacification and clearance; assay type: in vivo, white New Zealand rabbits
# Experimental: This sample was examined for imaging efficacy at the Center for Imaging and Pharmaceutical Research (CIPR) at the Massachusetts General Hospital in Charlestown, Mass. The sample was injected into white New Zealand rabbits at a dose of 3 ml/kg as a slow bolus injection. […], the opacification of the liver, spleen, and blood pool as measured in the aorta and within the left ventricle was determined by computed tomography (CT) using a Toshiba 900S Imager CT scanner and associated software.
# [3] = Aqueous solubility relative to the butyrate ester; assay type: physicochemical
# blood pool = test: CT imaging, blood pool opacification and clearance; assay type: in vivo, white New Zealand rabbits
# Experimental: (§4) This sample was examined for imaging efficacy at the Center for Imaging and Pharmaceutical Research (CIPR) at the Massachusetts General Hospital in Charlestown, Mass. The sample was injected into white New Zealand rabbits at a dose of 3 ml/kg as a slow bolus injection. At times of 5, 15, 30, 60 and 120 min. post injection, the opacification of the liver, spleen, and blood pool as measured in the aorta and within the left ventricle was determined by computed tomography (CT) using a Toshiba 900S Imager CT scanner and associated software.
# as §2
# liver = test: CT imaging, liver opacification and clearance; assay type: in vivo, white New Zealand rabbits
# Experimental: as §4
# [4] = Particle size after storage for 1 additional week at room temperature (shelf stability); assay type: physicochemical; details: with both F108 and T908
# Experimental: as §3, with “below: […]” for “below:”
# [5] = Crystal forms / polymorphism on recrystallization; assay type: physicochemical; details: e.g., when recrystallized from various solvents
# [6] = 15% Compound 2, 4% Pluronic F-108, 3 ml/kg slow bolus
# [7] = 24 hours post injection, 3 ml/kg
"Average particle size ([1]; 15% Compound 2, 4% Pluronic F-108, milled 3 days, light scattering)","Final particle size after milling ([1]; Pluronic F-108, milled 3 days, before PEG 400 and autoclaving)","Final particle size after autoclaving ([2]; 15% (w/v) compound, 3% (w/v) Pluronic F-108, 10% (w/v) PEG 400, 121° C. for 20 min.)",Stability to heat autoclaving ([2]; with both F108 and T908),Clearance from the spleen (spleen; [7]),"Aqueous solubility, times lower than ethyl 2-(3,5-bis(acetylamino)-2,4,6-triiodobenzoyloxy)butyrate [3]",Clearance from the blood (blood pool; [7]),Clearance from the liver (liver; [7]),Structure (SMILES),Lymphography level of opacification (lymph),Lymphography performance (lymph),"Spleen opacification, duration (spleen; [6])","Spleen opacification, grade (spleen; [6])","Blood pool opacification, duration (blood pool; [6])","Blood pool opacification, grade (blood pool; [6])","Blood pool opacification, duration (blood pool; autoclaved Pluronic F-108/PEG 400 formulation, 3 ml/kg)","Liver opacification, duration (liver; [6])","Liver opacification, grade (liver; [6])",Shelf stability [4],"Stability during autoclaving ([2]; nanoparticulate formulations, conventional heat sterilization)",Crystal forms [5]
162 nm,235 nm,248 nm,excellent stability to heat autoclaving,partial clearance,about 40 times,complete clearance,partial clearance,"CCCCC(OC(=O)c1c(I)c(NC(C)=O)c(I)c(NC(C)=O)c1I)C(=O)OCC (centres unmarked) [Compound 2, ethyl 2-(3,5-diacetamido-2,4,6-triiodobenzoyloxy)hexanoate]",highest level of opacification noted to date in this indication,excellent lymphography agent,120 min,very good,> 30 min,excellent,at least 30 min,120 min,very good,excellent stability to heat autoclaving and shelf stability,,
,,,,,,,,"CCOC(=O)C(CC)OC(=O)c1c(I)c(NC(C)=O)c(I)c(NC(C)=O)c1I (centres unmarked) [ethyl 2-(3,5-bis(acetylamino)-2,4,6-triiodobenzoyloxy)butyrate, reference compound]",,,,,,,,,,,do not exhibit good stability during autoclaving,"exhibits multiple crystal forms, i.e., polymorphs"
